In US20230346670A1, “Prebiotic Oral Care Compositions and Methods” (Colgate-Palmolive Company, priority 2020, published 2023):

Columns and labels:
multi-species biofilms = assay: Organic acid levels in supernatant of multi-species biofilms (ion chromatography); assay type: cell-based; conditions: >0 production, <0 consumption, n = 3
Experimental: (§1) Biofilms are grown vertically on Calcium Deficient Hydroxyapatite (CAD-HA) disks (Hitemco Medical, Old Bethpage, USA) using the Amsterdam Active Adhesion model. Biofilms are allowed to establish during 24 h (37° C., 170 rpm) under microaerophilic conditions (6% O2, 7% CO2, 7% H2, 80% N2). After this 24 h, disks are rinsed 3 times a day for 3 minutes (RT, 250 rpm), for 3 consecutive days, by transferring the lid containing the disks to a new 24-well plate containing 2 mL/well of the appropriate substrate solution. As a negative control, PBS (pH 5.7) without substrate supplementation is used.
Levels of organic acids in the filter sterilized supernatant of the multi-species biofilms are measured using a 761 Compact Ion Chromatograph (Metrhohm, Switzerland) with a Metrosep Organic acids Guard/4.6 guard column. The supernatants from the substrate-treated multi-species biofilms are analyzed to gain more insight into the influence of the substrates on organic acid consumption/production.

[1] = tested on: P. intermedia virulence genes; assay: Virulence gene expression in multi-species biofilm (SYBR RT-qPCR); assay type: cell-based; conditions: for fold change in DnaJ expression, geometric mean (95% C.I.) / fold change in DnaK expression, geometric mean (95% C.I.) / fold change in ECF expression, geometric mean (95% C.I.) / fold change in GroES expression, geometric mean (95% C.I.) / fold change in HtpG expression, geometric mean (95% C.I.) / fold change in KpsD expression, geometric mean (95% C.I.) / fold change in adpc expression, geometric mean (95% C.I.) / fold change in clpB expression, geometric mean (95% C.I.) / fold change in inpA expression, geometric mean (95% C.I.) / fold change in phg expression, geometric mean (95% C.I.): relative to control = 1
Experimental: as §1
The virulence of the substrate-treated multi-species biofilms are evaluated by analyzing the relative expression of 33 genes that are recognized as being related to some form of virulence and from 4 periodontal pathogens.
Expression of bacterial virulence genes is analyzed through SYBR RT-qPCR and normalized for bacterial housekeeping gene expression. […] These effects are illustrated in Tables 6a and 6b:
Note, for Table 6d, fold changes in virulence gene expression are determined relatively to the control condition through the 2^^-ΔΔCt method and are shown as the geometric mean (C.I.) (n = 3) of the 2^^-ΔΔCt values. All substrates are dissolved in PBS at a concentration of 1 M (upper part) or 1%(w/v) (lower part). Values between 0 and 1 represent relative downregulation, values >1 represent relative upregulation. […] NADG: N-acetyl-D-glucosamine; C.I.: 95% confidence interval.

[2] = substrate 1 M, listed as D-(+)-trehalose
[3] = lower part of Table 6d, head prints 1 M (lower part 1%(w/v))
[4] = upper part of Table 6d, substrate 1 M, n = 3

## OC[C@H]1O[C@H](O[C@H]2O[C@H](CO)[C@@H](O)[C@H](O)[C@H]2O)[C@H](O)[C@@H](O)[C@@H]1O [D-trehalose, D-(+)-trehalose]
multi-species biofilms; substrate 1% (w/v)
  lactate level in biofilm supernatant, mean ± SD: -125 ± 0 mg/L
  propionate level in biofilm supernatant, mean ± SD: 1962 ± 8 mg/L
multi-species biofilms; substrate 1 M
  acetate level in biofilm supernatant, mean ± SD: 1021 ± 41^∗ mg/L
  butyrate level in biofilm supernatant, mean ± SD: 0±0^∗ mg/L
  formate level in biofilm supernatant, mean ± SD: 75 ± 8^∗ mg/L
  lactate level in biofilm supernatant, mean ± SD: 4187 ± 200^∗ mg/L
  propionate level in biofilm supernatant, mean ± SD: 1577 ± 46^∗ mg/L
multi-species biofilms; [2]
  acetate level in biofilm supernatant, mean ± SD: 1021 ± 73 mg/L
  butyrate level in biofilm supernatant, mean ± SD: 0 ± 0 mg/L
  formate level in biofilm supernatant, mean ± SD: 75 ± 8 mg/L
  lactate level in biofilm supernatant, mean ± SD: 4187 ± 200 mg/L
  propionate level in biofilm supernatant, mean ± SD: 1577 ± 46 mg/L
[1]; [3]
  fold change in DnaJ expression, geometric mean (95% C.I.): 0.62 (0.08-4.67) fold
  fold change in DnaK expression, geometric mean (95% C.I.): 0.78 (0.44-1.36) fold
  fold change in ECF expression, geometric mean (95% C.I.): 0.69 (0.53-0.91) fold
  fold change in GroES expression, geometric mean (95% C.I.): 1.22 (0.61-2.45) fold
  fold change in HtpG expression, geometric mean (95% C.I.): 0.69 (0.42-1.12) fold
  fold change in KpsD expression, geometric mean (95% C.I.): 1.26 (0.52-3.08) fold
  fold change in adpc expression, geometric mean (95% C.I.): 0.64 (0.29-1.4) fold
  fold change in clpB expression, geometric mean (95% C.I.): 1.30 (0.44-3.83) fold
  fold change in inpA expression, geometric mean (95% C.I.): 0.56 (0.31-1.01)^∗ fold
  fold change in phg expression, geometric mean (95% C.I.): 0.86 (0.82-0.89) fold
[1]; substrate 1% (w/v)
  impact on P. intermedia virulence gene expression: limited impact
[1]; substrate 1 M
  downregulation of P. intermedia virulence gene expression: 5 fold
[1]; [4]
  fold change in DnaJ expression, geometric mean (95% C.I.): 1.81 (1.21-2.71) fold
  fold change in DnaK expression, geometric mean (95% C.I.): 8.82 (6.83-11.38)^∗ fold
  fold change in ECF expression, geometric mean (95% C.I.): 6.97 (1.65-29.40)^∗ fold
  fold change in GroES expression, geometric mean (95% C.I.): 11.52 (2.46-53.90)^∗ fold
  fold change in HtpG expression, geometric mean (95% C.I.): 0.67 (0.43-1.03) fold
  fold change in KpsD expression, geometric mean (95% C.I.): 0.59 (0.47-0.75) fold
  fold change in adpc expression, geometric mean (95% C.I.): 1.45 (0.76-2.77) fold
  fold change in clpB expression, geometric mean (95% C.I.): 1.90 (0.77-4.68) fold
  fold change in inpA expression, geometric mean (95% C.I.): 0.81 (0.41-1.63) fold
  fold change in phg expression, geometric mean (95% C.I.): 0.20 (0.14-0.29)^∗ fold
